Test systems include HCC-2998 colon; OVCAR-5 ovarian; SF-539 CNS; UACC-62 melanoma; MDA-MB-231 breast; ACHN renal; DU-145 prostate; NCI/ADR-RES ovarian; SN12C renal; SR leukemia; SK-OV-3 ovarian; HOP-92 NSCLC; MOLT-4 leukemia; CCRF-CEM leukemia; COLO 205 colon; BT-549 breast; HCT-116 colon; CAKI-1 renal; OVCAR-8 ovarian; SF-268 CNS; NCI-H522 lung; MDA-MB-435; UO-31 renal; HS 578T breast; A498 renal; RPMI-8226 leukemia; NCI-H226 lung; HT29 colon; SNB-75 CNS.

Common to all, as to experiment: NCI-60 cell line screen, 48 h

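How tested: cells in 96-well plates exposed to compound for 48 hours at five concentrations. GI50: concentration for 50% inhibition of growth. The concentration for full growth arrest is given as TGI.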

For 2 compounds, GI50 and TGI results are on record in PubChem BioAssay (NCI).

Turning to `C=CCn1c(C)nc2ccc(Nc3nc(Nc4ccc5nc(C)n(CC=C)c5c4)c4ccccc4n3)cc21`, the GI50 was 1.72 µM with HCC-2998 colon; 1.7 µM with OVCAR-5 ovarian; 1.71 µM with SF-539 CNS; 1.55 µM with UACC-62 melanoma; 1.34 µM in the experiment on MDA-MB-231 breast; 1.64 µM with ACHN renal. Further, the GI50 is 1.85 µM in the experiment on DU-145 prostate; 2.22 µM in the experiment on NCI/ADR-RES ovarian; 1.62 µM with SN12C renal; 1.52 µM in the experiment on SR leukemia; 1.72 µM in the experiment on SK-OV-3 ovarian. For the same compound, the TGI came to 3.09 µM with HCC-2998 colon; 3.09 µM with OVCAR-5 ovarian; 3.12 µM in the experiment on SF-539 CNS; 2.89 µM with UACC-62 melanoma; 2.62 µM with MDA-MB-231 breast; 3.01 µM with ACHN renal. Also, the TGI in the experiment with DU-145 prostate worked out at 3.27 µM; in the experiment on NCI/ADR-RES ovarian, 6.07 µM; in the experiment on SN12C renal, 2.98 µM; in the experiment on SR leukemia, 3.98 µM; in the experiment with SK-OV-3 ovarian, 3.09 µM.
For `Oc1cc2cccc[n+]2c2cc(Cl)ccc12`, the GI50 was 5.06 µM with HOP-92 NSCLC; 57.3 µM with MOLT-4 leukemia; 35.9 µM in the experiment on CCRF-CEM leukemia; 56.9 µM in the experiment on COLO 205 colon; 83.3 µM in the experiment on HCC-2998 colon; 78 µM in the experiment with BT-549 breast. In addition, the GI50 was 60.3 µM with HCT-116 colon; 65.9 µM in the experiment on CAKI-1 renal; 92.3 µM in the experiment on OVCAR-8 ovarian; 56.3 µM in the experiment with SF-268 CNS; 86.3 µM in the experiment on NCI-H522 lung; 29.2 µM in the experiment on MDA-MB-231 breast. For the same compound, the GI50 with MDA-MB-435 is 14.9 µM; with UO-31 renal, 57.9 µM; with HS 578T breast it was 84.5 µM; in the experiment with SN12C renal, 45.2 µM; in the experiment with A498 renal, 18.2 µM; in the experiment on SR leukemia it was 48.4 µM. The GI50 in the experiment on RPMI-8226 leukemia was 57 µM; in the experiment on NCI-H226 lung, 81 µM; in the experiment on HT29 colon, 71 µM; in the experiment on SNB-75 CNS, 91.5 µM. The TGI in the experiment with HOP-92 NSCLC stood at 9.88 µM; in the experiment with MDA-MB-435 it was 28.1 µM; in the experiment with A498 renal, 32.4 µM.
